Experimental data as given in patent publication US20060019907A1, “Guggulsterone: an inhibitor of nuclear factor - kappaB and IkappaBalpha kinase activation and uses thereof” (Research Development Foundation, priority 2004, published 2006).

Tests used:
Akt = assay: TNF-induced Akt activation, Western blot with phospho-specific anti-Akt; type: cell-based; conditions: pretreatment with guggulsterone, TNF (1 nM)
Source text: Guggulsterone Suppressed TNF-induced Activation of Akt: The results till now indicate that guggulsterone inhibits TNF-induced NF-κB activation through inhibition of IKK activation. It is possible that this inhibition is due to inhibition of an upstream kinase. Previous studies have reported that Akt can activate IKK. Thus it is possible that guggulsterone suppresses TNF-induced Akt activation. To determine the effect of guggulsterone on the activation of Akt induced by TNF, the cells were treated with guggulsterone, and then exposed to TNF (1 nM) for different times. Thereafter whole-cell extracts were prepared and Western blot analysis using phospho-specific anti-Akt antibody was performed.

U937 cells = assay: Cell cycle, flow cytometric analysis; type: cell-based, human; conditions: 10 μM, propidium iodide flow cytometry
Method: Flow cytometric analysis. To determine the effect of guggulsterone on the cell cycle, U937 cells were treated for different times, washed, and fixed with 70% ethanol. After an overnight incubation at −20° C., cells were washed with PBS, and then suspended in staining buffer (Propidium iodide, 10 μg/ml; Tween-20, 0.5%; RNase, 0.1% in PBS). The cells were analyzed using a FACS Vantage flow cytometer that uses CellQuest acquisition and analysis programs (Becton Dickinson, San Jose, Calif.). Gating was set to exclude cell debris, cell doublets, and cell clumps.

KBM-5 cells = assay: Cytotoxicity (MTT) assay with TNF and chemotherapeutic drugs; type: cell-based, human; conditions: 50 μM guggulsterone, 72 hours
Method: (§1) Cytotoxicity Assay: Cytotoxicity was assayed by the modified tetrazolium salt 3-(4-5-dimethylthiozol-2-yl)2-5-diphenyl-tetrazolium bromide (MTT) assay (Bharti et al., 2003). Briefly, cells (5000 cells/well) were incubated in the presence or absence of the indicated test sample in a final volume of 0.1 ml for 72 hours at 37° C. Thereafter, 0.025 ml of MTT solution (5 mg/ml in PBS) was added to each well. After a 2 hour incubation at 37° C., 0.1 ml of the extraction buffer (20% SDS, 50% dimethylformamide) was added. After an overnight incubation at 37° C., the optical densities at 570 nm were measured using a 96-well multiscanner autoreader (Dynatech MR5000), with the extraction buffer as blank. The percent cytotoxicity was determined as follows: (1−(A570 of test sample)/(A570 of control sample)×100%.

[1] = system: inducible nitric oxide synthetase (iNOS); conditions: Meselhy et al., 2003; cited from earlier work
STAT3 = assay: Constitutive STAT3 phosphorylation in U266 cells, Western blot; type: cell-based, human
Method: Western blot. For detection of STAT proteins, whole-cell extracts were prepared by lysing the guggulsterone-treated cells in lysis buffer (20 mM Tris, pH 7.4, 250 mM NaCl, 2 mM EDTA, pH 8.0, 0.1% Triton −X100, 0.01 mg/ml aprotinin, 0.005 mg/ml leupeptin, 0.4 mM PMSF, and 4 mM NaVO4). Lysates were then spun at 14,000 rpm for 10 min to remove insoluble material, and resolved on a 7.5% gel. After electrophoresis, the proteins were electrotransferred to a nitrocellulose membrane, blocked with 5% nonfat milk, and probed with anti-STAT antibodies (1:1000) overnight at 4° C. The blot was washed, exposed to HRP-conjugated secondary antibodies for 1 h, and finally examined by chemiluminescence (ECL, Amersham Pharmacia Biotech. Arlington Heights, Ill.).

tumor cells = assay: Antiproliferative effects against tumor cells (MTT); type: cell-based, human
Method: as §1, with “Briefly, cells (5000 cells/well) were incubated in the presence or absence of the indicated test sample in a final volume of 0.1 ml for 72 hours at 37° C.” left out
Cytotoxicity assay. The cytotoxic effects of guggulsterone was determined by the MTT uptake method. Briefly, 5000 cells were incubated with guggulsterone in triplicate in a 96-well plate at 37° C. MTT solution was then added to each well. After a 2-h incubation at 37° C., extraction buffer (20% SDS, 50% dimethylformamide) was added, the cells were incubated overnight at 37° C., and the OD was then measured at 570 nm using a 96-well multiscanner (Dynex Technologies, MRX Revelation, Chantilly, Va.).

[2] = humans; cited from earlier work
NF-κB = assay: NF-κB-dependent reporter gene (SEAP) transcription; type: cell-based, human
Method: NF-κB-dependent Reporter Gene Transcription: The effect of guggulsterone on TNF-induced NF-κB dependent reporter gene transcription was measured as previously described (Manna et al., 2000). Briefly, H1299 cells (5×10^5 cells/well) were plated in six-well plates and transiently transfected the next day by LIPOFECTAMINETM 2000 method with pNF-κB-SEAP using the manufacturer's protocol. To examine TNF-induced reporter gene expression, cells was transfected with 2 μg of the SEAP expression plasmid. After 18 hours, medium was removed, cells were rinsed and treated with various doses of guggulsterone for 4 hours and then treated with TNF. Twenty four hours later, the cell culture medium was harvested and analyzed for alkaline phosphatase (SEAP) activity essentially according to the protocol described by the manufacturer (Clontech, Palo Alto, Calif.) using a 96-well fluorescence plate reader ([…]; Labsystems, Chicago, Ill.) with excitation set at 360 nm and emission set at 460 nm.

RAW 264.7 cells = assay: Tumor cell (MDA-MB-468, U266) co-incubation-induced osteoclastogenesis; type: cell-based, mouse; conditions: RAW 264.7 co-incubation, GS 5 μM

CC=C1C(=O)C[C@H]2[C@@H]3CCC4=CC(=O)CC[C@]4(C)[C@H]3CC[C@]12C [guggulsterone, 4,17(20)-pregnadiene-3,16-dione]
TNF-induced Akt activation (Akt): completely suppressed the activation
cell cycle arrest (U937 cells): arrested the cell cycle in S-phase
cytotoxic effects of TNF, paclitaxel and doxorubicin in combination with guggulsterone (KBM-5 cells): enhanced the cytotoxic effects of TNF, paclitaxel and doxorubicin
iNOS expression induced by LPS in macrophages [1]: inhibiting inducible nitric oxide synthetase (iNOS) expression
overall expression of STAT3 protein (STAT3): did not alter the overall expression of STAT3 protein
earliest time at which inhibition of constitutive STAT3 phosphorylation is observed (STAT3; 25 μM): 4 h
lowest concentration at which inhibition of constitutive STAT3 phosphorylation is observed (STAT3; 4 h): 25 µM
constitutively active (phosphorylated) STAT3 (STAT3; time- and dose-dependent): inhibited the constitutively active STAT3
proliferation of head and neck, lung, melanoma, multiple myeloma, leukemia and breast cancer cells (tumor cells; 2000 cells in 0.1 ml, six days, MTT): suppressed the proliferation of a wide variety of cells
proliferation of human leukemia, head and neck carcinoma, multiple myeloma, lung carcinoma, melanoma, breast carcinoma and ovarian cancer cell lines (tumor cells; Example 2): inhibits the proliferation
proliferation of drug resistant cancer cells (tumor cells; STI-resistant K562, dexamethasone resistant MM1, doxorubicin resistant breast cancer cell lines): inhibited the proliferation of drug resistant cancer cells
pharmacological safety [2]: pharmacologically safe agent in humans
NF-κB-dependent SEAP expression induced by TNFR, TRADD, NIK and IKKβ plasmids (NF-κB; H1299, 50 μM, 4 hours): suppressed reporter gene expression induced by TNFR, TRADD, NIK and IKKβ plasmids
NF-κB-dependent SEAP expression induced by p65 plasmid (NF-κB; H1299, 50 μM, 4 hours): had no effect on that induced by p65
TNF-induced NF-κB-dependent SEAP expression (NF-κB; H1299 cells, 0.1 nM TNF 24 hours): inhibited by guggulsterone in a dose-dependent manner
osteoclast differentiation induced by co-incubation of U266 cells with macrophages (RAW 264.7 cells): induced osteoclast differentiation was suppressed
MDA-MB-468 cells-induced and U266 cells-induced osteoclast differentiation (RAW 264.7 cells; 5 days): suppressed osteoclastogenesis
